Assay results published in US10251845B2, “Fatty acid cysteamine conjugates and their use as activators of autophagy” (Catabasis Pharmaceuticals, Inc., priority 2014, dated 2019).
“Also recorded” adds a separate entry of the source. Like-named read-outs stand apart in the source and are kept apart here.

What was measured:
[1] = tested on: LC3-II/LC3-I; assay: LC3 immunoblotting in Huh-7 cells (autophagy); format: cell-based
Method: The test compound was first solubilized in 100% DMSO as a 50 mM solution, and then diluted 1 to 100 in FBS as a 10× stock solution of 500 μM.
Huh-7 cells were seeded in 10% FBS DMEM overnight. The cells media were replaced with drug diluted 1 to 10 in DMEM (final concentration 50 μm in 10% FBS DMEM). Four hours after the drug addition, cells were lysed in RIPA buffer. Cell lysates were analyzed by immunoblotting with anti-LC3A/B antibodies (Cell signaling 12741). Data were presented as LC3-II/LC3-I ratio compared to vehicle treated samples.
The same experimental procedure detailed in Example 11 was used, except that 2 hours after the drug addition, cells were lysed in RIPA buffer, instead of the previously described 4 hours. Cell lysates were again analyzed by immunoblotting with anti-LC3A/B antibodies (Cell Signaling Technology 12741). Data were presented as LC3-II/LC3-I ratio compared to vehicle treated samples.
This same synergy experiment was repeated in Huh-7 cells after a 4 hour treatment with compound II-2 along with a higher concentration of the individual components (250 μM each of cystamine, EPA or a combination of cystamine and EPA).

[2] = Plasma stability, rat plasma; format: in vitro ADME; details: rat plasma, 5 μM, 0.5, 1 and 2 hour time points
Method: (§1) The in vitro stability of the test compounds was studied in human, mouse, beagle and rat plasma (plasma was purchased from Bioreclamation). Plasma was diluted to 50% with PBS (pH 7.4). Test compounds were dissolved in DMSO to a final concentration of 10 mM and then diluted to 1 mM in MeOH. Incubations were carried at a test compound concentration of 5 μM with a final DMSO concentration of 2.5%. Plasma (198 μL) was added to 96-well plate and incubated at 37° C. for 30 minutes before the addition of […] of the test compound. The resulting mixture was then incubated at 37° C. for 2 hours. At appropriate time intervals (0, 30, 60 and 120 minutes), aliquots (50 μL) were removed and reactions were terminated by adding 200 μL of acetonitrile with an internal standard. Simultaneously, plasma samples containing Benflourex or Procaine (control compound) were terminated by adding 200 μL of acetonitrile internal standard. The sample plate was centrifuged at 3500 rpm for 45 minutes at 4° C. and the supernatant was transferred to a new plate for analysis by LC/MS-MS (Agilent Model No: HPLC: 1200, MS: 6410). […] A binary gradient consisting of 0.1% formic acid in water and 0.1% formic acid in methanol was used for analyte elution.

[3] = Plasma stability, mouse plasma; format: in vitro ADME; details: 5 μM, 0.5, 1 and 2 hour time points
Method: as §1

[4] = Oral cannulated rat PK study (portal and jugular vein); format: in vivo, Sprague Dawley rats; details: rat, oral; for AUC(0-t) / Cmax: Sprague Dawley
Text: The compounds of the invention were solubilized in a mixture of excipients consisting 40% Tween, 50% Peceol, 10% PEG400 and diluted with water to form a self-emulsifying aqueous mixture for oral administration to animals. For this study, Sprague Dawley rats that have been surgically implanted with indwelling jugular vein cannula (JVC) and portal vein cannula (PVC) were used (Agilux, Worcester, Mass.). This approach using double-cannulated rats allowed the measurement of the drug concentration that was delivered in the portal vein as well as the drug concentration that was present in the peripheral. For the PK study, serial blood collection was carried out at both the portal and jugular vein at the following time points: 10, 20, 40 min and 1, 2, 4 and 6 hours post dose. The bioanalytical portion of the PK study was carried out using an LC/MS/MS system (Agilent Model No: HPLC: 1200, MS: 6410) and analyzed with the appropriate software (WinNonlin Phoenix 64 6.3.0 395).

[5] = target: ΔF508 CFTR (Homo sapiens, UniProt P13569, DEL508-508); assay: Ussing chamber short circuit current in Fisher Rat Thyroid epithelial cells overexpressing ΔF508-CFTR; format: cell-based; parameters: expressed in transfected cells; host or cells: Fisher Rat Thyroid (FRT) epithelial cells, stably transfected; details: FRT cells, 10 μM, 4 hours
Sequence of ΔF508 CFTR (P13569 with tags, fused parts or gaps DEL508-508): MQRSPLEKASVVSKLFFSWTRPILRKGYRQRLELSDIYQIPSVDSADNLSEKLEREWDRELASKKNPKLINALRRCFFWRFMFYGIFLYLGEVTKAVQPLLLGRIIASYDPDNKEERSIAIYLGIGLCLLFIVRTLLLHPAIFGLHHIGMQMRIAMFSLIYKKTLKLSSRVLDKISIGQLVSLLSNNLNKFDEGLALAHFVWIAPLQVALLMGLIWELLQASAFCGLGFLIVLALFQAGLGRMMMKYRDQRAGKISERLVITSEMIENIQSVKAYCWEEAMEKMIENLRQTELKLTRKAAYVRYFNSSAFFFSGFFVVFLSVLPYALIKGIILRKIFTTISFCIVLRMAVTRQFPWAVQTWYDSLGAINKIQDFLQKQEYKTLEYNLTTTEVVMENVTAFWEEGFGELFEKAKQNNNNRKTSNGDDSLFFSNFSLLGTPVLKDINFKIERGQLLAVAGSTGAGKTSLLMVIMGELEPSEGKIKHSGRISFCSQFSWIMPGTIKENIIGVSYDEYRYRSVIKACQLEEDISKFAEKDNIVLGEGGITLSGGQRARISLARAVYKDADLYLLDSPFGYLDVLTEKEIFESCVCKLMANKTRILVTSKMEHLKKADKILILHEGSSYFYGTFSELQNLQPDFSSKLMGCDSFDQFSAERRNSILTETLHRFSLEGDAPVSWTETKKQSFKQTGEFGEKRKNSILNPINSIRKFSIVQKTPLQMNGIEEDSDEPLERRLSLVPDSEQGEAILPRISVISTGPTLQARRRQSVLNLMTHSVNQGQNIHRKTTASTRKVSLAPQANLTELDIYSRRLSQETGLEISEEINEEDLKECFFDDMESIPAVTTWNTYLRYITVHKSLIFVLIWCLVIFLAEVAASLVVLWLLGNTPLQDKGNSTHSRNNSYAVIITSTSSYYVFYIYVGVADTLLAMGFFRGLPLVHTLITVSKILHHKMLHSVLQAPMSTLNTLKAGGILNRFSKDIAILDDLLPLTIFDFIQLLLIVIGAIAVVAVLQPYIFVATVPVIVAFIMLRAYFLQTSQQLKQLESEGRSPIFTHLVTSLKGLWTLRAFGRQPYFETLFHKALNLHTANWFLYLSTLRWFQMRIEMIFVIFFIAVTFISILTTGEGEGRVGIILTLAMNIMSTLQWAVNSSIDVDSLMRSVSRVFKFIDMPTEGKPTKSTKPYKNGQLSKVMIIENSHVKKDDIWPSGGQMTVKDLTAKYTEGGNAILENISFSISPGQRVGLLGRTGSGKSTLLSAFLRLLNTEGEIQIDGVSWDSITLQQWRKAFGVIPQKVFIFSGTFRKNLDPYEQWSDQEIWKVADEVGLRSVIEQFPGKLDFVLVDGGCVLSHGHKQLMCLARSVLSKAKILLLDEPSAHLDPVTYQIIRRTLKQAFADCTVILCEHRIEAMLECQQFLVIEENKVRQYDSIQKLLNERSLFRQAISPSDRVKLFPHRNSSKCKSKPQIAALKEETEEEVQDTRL
Method: The most prevalent disease causing mutation of the CF transmembrane conductance regulator (CFTR) chloride channel is the deletion of phenylalanine at position 508 in the primary sequence of CFTR (ΔF508-CFTR). This mutation causes a trafficking defect resulting in a severe reduction of ΔF508-CFTR protein at the cell surface. The trafficking defect can be corrected by incubation at low temperature (27° C. overnight) or pharmacologically by small molecules and CFTR correctors. Chloride transport function of Fisher Rat Thyroid (FRT) epithelial cells overexpressing ΔF508-CFTR in monolayers grown on Snapwell™ filter inserts will be monitored as the CFTR agonist evoked short circuit (ISC) current output of an Ussing epithelial voltage clamp apparatus. An objective of this study is to measure the ability of test compounds to restore function to defective ΔF508-CFTR in FRT epithelial cell monolayers.
Measurement of corrector efficacy is divided into two phases. The initial phase is incubation of epithelia with the test compounds for a period of time (that can range from 2 hours to one or two days) in a 37° C. incubator and the second phase is measurement of epithelial ΔF508-CFTR chloride channel current with an epithelial voltage clamp (Ussing assay). The short circuit current (ISC) is measured under short circuit conditions (0 mV transepithelial potential). The ISC magnitude is an index of corrector efficacy and is compared to vehicle and positive control.
Cryopreserved FRT cells stably transfected with ΔF508-CFTR cDNA (Pedemonte et al. (2005) J. CLIN. INVEST., 115, p. 2564-2571) were expanded and plated on Snapwell™ filters for measurement of short circuit current in an Ussing apparatus (Physiologic Instruments, Inc., Sand Diego, Calif.). Cells were grown in Coon's modification of Ham's F-12 media supplemented with zeocin and G-418.
To conduct the assay, a compound of the invention was solubilized as follows: • 1) Prepare 25 mM stock solution in 100% DMSO. • 2) Dilute 12 μL of 25 mM stock solution in 1.20 mL of FBS to make 250 μM intermediate dilution 10× stock (1% DMSO, 99% FBS). Gently vortex all solutions until the solution becomes clear. • 3) Prepare final dilution of 10 μM in 10 mL of Coon's media per well (4 wells×2 mL per well bottom+0.2 mL per insert top=8.8 mL and 1.2 mL reserve for handling losses) by addition of 400 μL of 10× stock and 600 μL of 10× carrier (1% DMSO, 99% FBS) to 9000 μL of Coon's media.
For this example, the test compound was solubilized and added to the appropriate inserts of Ussing chambers (n=4 for each test compound, final test concentration of 10 μM). A DMSO vehicle control and a positive control (VX-809 at 3 μM) were also used. For this particular example, all the test articles, including the positive control, were incubated with the cells for a period of 4 hours. The FRT cell monolayers grown on Snapwell™ filter inserts were transferred to Physiologic Instruments Ussing recording chambers (Physiologic Instruments, Inc., San Diego, Calif.) and superfused with HB-PS on the basolateral side and 78CF-PS on the apical side. One or more 6-channel or 8-channel Physiologic Instruments VCC MC6 or VCC MC8 epithelial voltage clamps were then used in combination to record the short circuit current (ISC) during the entire run. To initiate the ISC measurement, amphotericin (100 μM) was added to the basolateral side of the Snapwell™ filter insert to permeabilize the epithelial cells for 15 min. Forskolin (10 μM), IBMX (100 μM), Genistein (20 μM) and the CFTRinh-172 (20 μM) were added sequentially after the following incubation periods (15 min, 20 min, 10 min, 15 min and 15 min respectively). Data acquisition and analyses were performed using iWorx data acquisition hardware and Labscribe 2 software (iWorx, Dover, N.H.). […]

Compound: CC/C=C\C/C=C\C/C=C\C/C=C\C/C=C\CCCC(=O)NCCSSCCNC(=O)c1cccnc1 [II-2, N-(2-((2-((5Z,8Z,11Z,14Z,17Z)-icosa-5,8,11,14,17-pentaenamido)ethyl)disulfanyl)ethyl)nicotinamide]
- autophagy marker LC3-II (lower band) levels ([1]; Huh cells, 25 and 50 μM, 4 hours): increase
- ratio of LC3-II to LC3-I compared to vehicle control ([1]; Huh-7, 50 μM, 2 hours): two-fold increase
- autophagy marker LC3-II (lower band) ([1]; Huh-7, 50 μM, 2 hours, compared with cystamine, EPA or their combination (50 μM each)): synergistic increase
- activation of autophagy (ratio of LC3-II to LC3-I) ([1]; Huh-7, 50 μM, 4 hour treatment): synergistic and higher degree of activation of autophagy
- ratio of LC3-II to LC3-I ([1]; Huh-7 cells, 25 μM, 4 hours): increased
- plasma stability (parent compound remaining) [2]: unstable; also recorded: not stable
- plasma stability (parent compound remaining) [3]: unstable
- AUC(0-t) ([4]; jugular vein blood (peripheral), systemic circulation (jugular vein), read-out: peripheral AUClast): 0.443 ± 0.221 ng·h/mL
- Cmax ([4]; jugular vein blood (peripheral), systemic circulation (jugular vein), read-out: peripheral Cmax): 0.000889 ± 0.00033 µg/mL
- AUC(0-t) ([4]; portal vein blood, portal vein, read-out: portal AUClast): 12.5 ± 6.5 ng·h/mL
- Cmax ([4]; portal vein blood, portal vein, read-out: portal Cmax): 0.0208 ± 0.00945 µg/mL
- degradation of the parent compound upon oral dosing [4]: significant amount of the parent compound was degraded
- peripheral AUClast ([4]; as restated in Example 23): 0.889 ng·h/mL
- functional rescue of CFTR (short circuit current vs vehicle) [5]: able to functionally rescue CFTR function
